From ChEMBL document CHEMBL1201862, “PubChem BioAssay data set” (2004)
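96-well plates; 48 h exposure; 5 concentrations. Endpoints by linear interpolation between flanking doses. Not reached: highest tested concentration assigned. GI50: concentration for 50% inhibition of growth.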 Activity calls are given as the source filed them. Cut-off read from the data, not from the text of the source: active = GI50 up to about 1.1 µM and inactive = higher.

Key:
Assay in all cases: DTP human tumour cell line panel, 48 h
UO-31 = system: UO-31
OVCAR-8 = system: OVCAR-8
ACHN = system: ACHN
COLO 205 = system: COLO 205
SF-295 = system: SF-295
NCI-H23 = system: NCI-H23
M14 = system: M14
OVCAR-3 = system: OVCAR-3
OVCAR-5 = system: OVCAR-5
HCT-15 = system: HCT-15
HOP-92 = system: HOP-92
HCT-116 = system: HCT-116
NCI/ADR-RES = system: NCI/ADR-RES
CCRF-CEM = system: CCRF-CEM
TK-10 = system: TK-10
SF-539 = system: SF-539
A498 = system: A498
SF-268 = system: SF-268
SR = system: SR
786-0 = system: 786-0

`CC1=CC(C)C(C)N(CC2=NCCN2)c2ccccc21` (stereo not given) was tested. Which GI50 (UO-31) did it give?
The GI50 was 47.3 µM (inactive).

And the GI50 (OVCAR-8)?
The GI50 was > 80.9 µM (inactive).

What about the GI50 (ACHN) of the same compound?
The GI50 was 97.9 µM (inactive).

What about the GI50 (COLO 205) of the same compound?
Its GI50 is 16.9 µM (inactive).

And the GI50 (SF-295)?
Its GI50 is 67.3 µM (inactive).

And the GI50 (NCI-H23)?
Its GI50 is > 100 µM (inactive).

And the GI50 (M14)?
The GI50 was 17.8 µM (inactive).

And the GI50 (OVCAR-3)?
The GI50 was 56.8 µM (inactive).

What about the GI50 (OVCAR-5) of the same compound?
The GI50 was > 57.7 µM (inactive).

And the GI50 (HCT-15)?
Its GI50 is greater than 100 µM.

And the GI50 (HOP-92)?
The GI50 was 11 µM (inactive).

What about the GI50 (HCT-116) of the same compound?
Its GI50 is 40 µM (inactive).

And the GI50 (NCI/ADR-RES)?
Its GI50 is 99.5 µM (inactive).

What about the GI50 (CCRF-CEM) of the same compound?
Its GI50 is 45.6 µM (inactive).

And the GI50 (TK-10)?
The GI50 was 54.2 µM (inactive).

What about the GI50 (SF-539) of the same compound?
Its GI50 is 62.1 µM (inactive).

And the GI50 (A498)?
Its GI50 is > 59.8 µM (inactive).

And the GI50 (SF-268)?
Its GI50 is 72.8 µM (inactive).

What about the GI50 (SR) of the same compound?
The GI50 was 26 µM (inactive).

And the GI50 (786-0)?
Its GI50 is 83.2 µM (inactive).

With `Cn1c2ccc([N+](=O)[O-])cc2c(=O)n1Cc1ccccc1F` as the compound, how does the GI50 (UO-31) read?
The GI50 was 37.9 µM (inactive).

And the GI50 (OVCAR-8)?
Its GI50 is 28.6 µM (inactive).

And the GI50 (ACHN)?
Its GI50 is 53.3 µM (inactive).

And the GI50 (COLO 205)?
The GI50 was 39.6 µM (inactive).

What about the GI50 (SF-295) of the same compound?
The GI50 was 54.1 µM (inactive).

What about the GI50 (NCI-H23) of the same compound?
Its GI50 is 48 µM (inactive).

And the GI50 (M14)?
Its GI50 is 25.4 µM (inactive).

And the GI50 (OVCAR-3)?
The GI50 was 40.8 µM (inactive).

And the GI50 (OVCAR-5)?
The GI50 was 46.3 µM (inactive).

What about the GI50 (HCT-15) of the same compound?
The GI50 was 40.5 µM.

And the GI50 (HOP-92)?
Its GI50 is 27.7 µM (inactive).

And the GI50 (HCT-116)?
Its GI50 is 29.1 µM (inactive).

What about the GI50 (NCI/ADR-RES) of the same compound?
Its GI50 is 23 µM (inactive).

And the GI50 (CCRF-CEM)?
The GI50 was 46.6 µM (inactive).

And the GI50 (TK-10)?
The GI50 was 34 µM (inactive).

And the GI50 (SF-539)?
The GI50 was 25.2 µM (inactive).

And the GI50 (A498)?
Its GI50 is 37.2 µM (inactive).

And the GI50 (SF-268)?
Its GI50 is 36.6 µM (inactive).

And the GI50 (SR)?
Its GI50 is 59.8 µM (inactive).

And the GI50 (786-0)?
Its GI50 is 49.5 µM (inactive).
